Test [1] deals with mice. Briefly: Blood glucose concentration kinetics of IGF-2 vs. insulin in a glucose tolerance test. Type of test: in vivo. The protocol: IGF-2 therefore provides an effect that mimics insulin within the body, and that effect is referred to herein as an “insulinomimetic” effect. […] More specifically, when 1 unit of insulin per kg was administered, the recovery in glucose levels began after two hours. But when 800 μg/kg of IGF-2 was administered, the recovery in glucose levels began after six hours. […] In this example, administering IGF-2 can provide better results than administering insulin with respect to blood glucose levels, even when only a single dose was used. Without being bound by this theory, it is possible that the IGF-2 combines with a number of binding proteins in the blood and its active free form is then released slowly from the complex.

Test [2] deals with C57BL/6 STZ mice. Put plainly: Fasting blood glucose in STZ-induced diabetic C57BL/6 mice treated with IGF-2. It counts as in vivo. The note with it: IGF-2 12,000 μg/kg daily on each of 12 consecutive days.
In test [3] the test system is Beta-TC-6 cells. Put plainly: Insulin secretion assay using Beta-TC-6 cells. The note with it: 2 hours, 500 mM of each peptide, Mouse Insulin ELISA. Type of test: cell-based. How it is done:
To evaluate insulin secretion in response to peptide treatment, Beta-TC-6 cells were plated in 96-well culture plates at a density of 8×10^4 cells per well. After 48 hours of incubation, the cells were washed and preincubated in serum-free medium for 1 hour. Following this, cells were treated for 2 hours with 200 μl of serum-free medium supplemented with […] of each peptide. After the treatment period, the induction medium was collected and stored at −80° C. until analysis. Insulin levels in the collected medium were measured using the Mercodia Mouse Insulin ELISA Kit (#10-1247-01) according to the manufacturer's instructions. […] Results appear in FIG. 36.
(In an ELISA, binding on a coated surface is turned into a signal by an enzyme label.)

Test [4] concerns db/db mice. Put plainly: Serum insulin in db/db mice after long-term IGF-2 treatment. The note with it: 12,000 μg/kg daily for 68 days, measured 6.5 weeks after end of treatment. It counts as in vivo. The protocol:
In this experiment, one group of db/db mice (labeled FA X1) was injected with 3000 μg/kg of IGF-2 once a day for 68 days, a second group of db/db mice (labeled FA X4) was injected with a daily dose of 12000 μg/kg of IGF-2 divided in two injections per day for 68 days, and a third group of db/db mice was injected with saline. Serum insulin levels were measured 6.5 weeks after the end of the 68 day treatment. Treatment with the 12,000 μg/kg daily dose increased serum insulin levels by about 50% with respect to the control.

The subject of test [5] is STZ-treated mice. Briefly: Pancreas histology and insulin immunohistochemistry in STZ-treated mice. Type of test: in vivo. How it is done: FIG. 21 depicts pancreas histology results on STZ-treated mice. […] The non-control mice were treated once a day for 10 days with a 3000 μg/kg dose of IGF-2. The mice were sacrificed on day 35 and pancreas cells were assessed as being insulin positive or negative.

As for insulin-like growth factor 2 [IGF-2], in test [1] (glucose tolerance test in mice), the “Glucose level after administration” value was “decreased”. Besides, the “Time after which the recovery in glucose levels began” value in test [1] (insulin 1 unit per kg, IGF-2 800 μg/kg, single dose) is “six”. Also, the “Long-term improvements in blood glucose levels” value in test [2] was “long-term improvements in blood glucose levels were obtained”. Besides, the “Insulin secretion compared to the control” value in test [3] is given as “enhanced insulin secretion compared to the control”. The “Increase in serum insulin levels with respect to the control” value in test [4] is given as “about 50%”. Also, the entries for the “Level of insulin in pancreas islets compared to a naïve mouse (IHC)” value in test [5] (non-permanently cured mouse) and in test [5] (permanently cured mouse) were “lower level of insulin in its pancreas islets” and “higher level of insulin in its pancreas islets”, respectively. In addition, in test [5] (permanently cured mice, 3000 μg/kg once a day for 10 days, sacrificed on day 35), the “Increase in the number of functional beta cells” value is on record as “four”.

The values above are taken from US20260151457A1, “Peptides and Fragments for Treating Diabetes and Associated Metabolic Diseases” (Betavive Ltd., priority 2024, published 2026).
